# System: axonal mitochondria of DRG neurons
# Experiment: Live cell imaging of axonal mitochondrial movement in cultured DRG neurons
# Type: cell-based, rat
# Description: HDAC6 inhibition was previously shown to increase transport of mitochondria in axons of embryonic rodent hippocampal and chick sensory neurons (Chen et al., 2010; Kim et al., 2012; Rui and Zheng, 2016; Sainath et al., 2017), and axonal mitochondrial transport has been linked to axon growth (Steketee et al., 2012; Cartoni et al., 2016; Lewis et al., 2016; Zhou et al., 2016). By live cell imaging with MitoTracker to visualize mitochondria, DRG neurons appeared to show increased anterograde versus retrograde mitochondrial movement along axons (FIG. 3 at A and B). […] (A and B) Representative images from CALI time lapse sequence are shown for DRGs cultured on laminin and treated with vehicle control (DMSO) versus 10 μM TubA for 1 h (A). BFP is shown in blue as an axonal marker and Mito-KR signal is shown in red. Boxed regions represent ROI for distal axon and growth cone that was subjected to photoactivation of Mito-KR to ablate mitochondria. […] (C and D) Quantifications of percentage of axons retracting (C) and retraction distance (D) from image sequences as in A are shown as average±SEM (n≥13 across three culture preparations; ***, P≤0.005 by one-way ANOVA with Bonferroni post hoc analysis). (E) Recovery of Mito-KR red fluorescence in photoactivated ROI from image sequences as in A is shown as average of normalized percentage recovery±SEM (n≥13 axons from three independent experiments; *, P≤0.05; **, P≤0.01; ***, P≤0.005 vs. t=0; ###, P≤0.005; ####, P≤0.001, #####, P≤0.0005 for TubA vs. control; and NS vs. t=0 s by one-way ANOVA with Bonferroni post hoc analysis). […]
# Quantification of growth cone mitochondria was performed using high-magnification images from living neurons transfected with either Mito-KR or incubated with MitoTracker. […] Only mitochondria that could be distinguished as a single mitochondrion were counted; if this was not possible, that growth cone was not included in the analysis. […]
# Vesicle trafficking was quantified using differential ImageJ Difference Tracker Plug-in (Andrews et al., 2010). […] Movement of ≥0.5 μm toward the axon shaft was counted as retracted. […]
smiles,measurement,setting,value
"CN1CCc2c(c3ccccc3n2Cc2ccc(C(=O)NO)cc2)C1 [TubA, tubastatin]",mitochondrial profiles in growth cones,"10 μM TubA, 1 h vs vehicle",significant increase in mitochondrial profiles in the growth cones
same,"speed, track durations, directionality of axonal mitochondrial movements","HDAC6-inhibited (10 μM TubA) vs control, laminin",no significant differences
same,anterogradely vs retrogradely moving mitochondria in axons,HDAC6-inhibited cultures,more anterogradely than retrogradely moving mitochondria
